Results published in ChEMBL document CHEMBL1909046, “DrugMatrix in vitro pharmacology data”.
pIC50: −log10 of the molar value.

Assays:
[1] = target: T1, Angiotensin-converting enzyme (Oryctolagus cuniculus, UniProt P12822); type: tissue-based, Lung;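 also: enzymatic inhibition of angiotensin-converting enzyme measured with FAPGG as the substrate; in other assays of this panel Not Active means under 50% inhibition at 10 µM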
T1 sequence (P12822 whole entry): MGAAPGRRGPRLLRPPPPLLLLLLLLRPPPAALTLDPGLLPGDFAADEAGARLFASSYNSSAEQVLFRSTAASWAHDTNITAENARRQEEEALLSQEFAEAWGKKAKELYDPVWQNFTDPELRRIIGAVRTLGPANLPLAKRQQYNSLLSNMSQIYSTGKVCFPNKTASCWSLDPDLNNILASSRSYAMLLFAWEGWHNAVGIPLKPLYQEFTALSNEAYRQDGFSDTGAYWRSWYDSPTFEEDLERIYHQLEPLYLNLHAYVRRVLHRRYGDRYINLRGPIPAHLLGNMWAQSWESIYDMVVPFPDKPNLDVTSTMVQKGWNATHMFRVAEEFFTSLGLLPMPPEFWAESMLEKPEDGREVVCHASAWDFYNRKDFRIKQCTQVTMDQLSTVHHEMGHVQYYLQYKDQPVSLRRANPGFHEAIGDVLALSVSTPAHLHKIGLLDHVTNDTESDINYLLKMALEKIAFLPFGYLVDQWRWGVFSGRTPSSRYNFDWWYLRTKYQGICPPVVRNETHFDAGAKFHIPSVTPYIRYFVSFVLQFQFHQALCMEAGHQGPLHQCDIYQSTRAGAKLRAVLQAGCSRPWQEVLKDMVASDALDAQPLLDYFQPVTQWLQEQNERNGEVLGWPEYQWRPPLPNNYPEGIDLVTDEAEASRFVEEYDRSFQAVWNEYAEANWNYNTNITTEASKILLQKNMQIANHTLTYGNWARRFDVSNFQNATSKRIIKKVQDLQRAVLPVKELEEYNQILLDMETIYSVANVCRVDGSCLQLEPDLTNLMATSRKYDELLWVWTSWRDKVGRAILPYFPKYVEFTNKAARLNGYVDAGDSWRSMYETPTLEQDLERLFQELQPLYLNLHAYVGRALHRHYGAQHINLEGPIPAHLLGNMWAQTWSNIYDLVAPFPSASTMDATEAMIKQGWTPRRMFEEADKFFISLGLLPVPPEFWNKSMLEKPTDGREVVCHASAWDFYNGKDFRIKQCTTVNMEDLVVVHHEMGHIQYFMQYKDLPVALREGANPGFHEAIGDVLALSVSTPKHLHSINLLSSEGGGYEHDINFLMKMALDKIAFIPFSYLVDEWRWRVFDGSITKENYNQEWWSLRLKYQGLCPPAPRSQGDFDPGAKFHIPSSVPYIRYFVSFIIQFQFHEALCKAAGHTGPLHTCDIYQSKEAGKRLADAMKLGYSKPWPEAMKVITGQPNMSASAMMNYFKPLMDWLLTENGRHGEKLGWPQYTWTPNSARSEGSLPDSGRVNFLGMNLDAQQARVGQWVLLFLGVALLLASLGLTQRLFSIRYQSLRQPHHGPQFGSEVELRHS

[2] = target: T2, Amine oxidase [flavin-containing] A (Homo sapiens, UniProt P21397); experiment: DRUGMATRIX: Monoamine Oxidase MAO-A enzyme inhibition (substrate: Kynuramine); parameters: species or system BTI-TN-5B1-4; settings: bti-tn-5b1-4; Not Active = under 50% inhibition at 10 µM
T2 sequence (P21397 whole entry): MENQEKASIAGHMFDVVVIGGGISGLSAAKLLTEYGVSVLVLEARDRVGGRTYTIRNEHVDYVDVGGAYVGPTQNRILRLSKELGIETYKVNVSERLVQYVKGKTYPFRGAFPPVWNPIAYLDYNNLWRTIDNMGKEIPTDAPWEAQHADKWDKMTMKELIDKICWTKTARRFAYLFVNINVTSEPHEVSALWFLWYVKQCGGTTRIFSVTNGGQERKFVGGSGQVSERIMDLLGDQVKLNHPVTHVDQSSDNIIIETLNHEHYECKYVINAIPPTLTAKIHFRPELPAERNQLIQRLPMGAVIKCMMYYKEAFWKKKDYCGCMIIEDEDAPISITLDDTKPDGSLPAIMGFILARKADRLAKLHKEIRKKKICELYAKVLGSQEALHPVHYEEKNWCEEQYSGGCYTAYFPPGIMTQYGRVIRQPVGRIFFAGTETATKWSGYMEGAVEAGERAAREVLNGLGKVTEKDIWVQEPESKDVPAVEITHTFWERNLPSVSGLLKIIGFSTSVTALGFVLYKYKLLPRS

Melanocortin receptor 4 = Melanocortin receptor 4 (Homo sapiens, UniProt P32245); type: cell membranes, Membrane; settings: hek293; also: in other assays of this panel Not Active means under 50% inhibition at 10 µM
Melanocortin receptor 4, sequence (P32245 whole entry): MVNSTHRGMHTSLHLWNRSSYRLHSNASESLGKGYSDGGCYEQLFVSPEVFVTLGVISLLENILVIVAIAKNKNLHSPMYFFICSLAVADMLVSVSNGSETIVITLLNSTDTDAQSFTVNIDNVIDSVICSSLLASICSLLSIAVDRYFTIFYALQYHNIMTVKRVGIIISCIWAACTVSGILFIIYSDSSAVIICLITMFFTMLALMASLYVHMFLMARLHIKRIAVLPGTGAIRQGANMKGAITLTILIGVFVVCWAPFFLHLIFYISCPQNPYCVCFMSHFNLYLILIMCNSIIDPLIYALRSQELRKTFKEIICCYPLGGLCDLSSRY

[3] = target: Platelet-activating factor receptor (Homo sapiens, UniProt P25105); experiment: biochemical; type: tissue-based; settings: platelet; also: in other assays of this panel Not Active means under 50% inhibition at 10 µM
Platelet-activating factor receptor, sequence (P25105 whole entry): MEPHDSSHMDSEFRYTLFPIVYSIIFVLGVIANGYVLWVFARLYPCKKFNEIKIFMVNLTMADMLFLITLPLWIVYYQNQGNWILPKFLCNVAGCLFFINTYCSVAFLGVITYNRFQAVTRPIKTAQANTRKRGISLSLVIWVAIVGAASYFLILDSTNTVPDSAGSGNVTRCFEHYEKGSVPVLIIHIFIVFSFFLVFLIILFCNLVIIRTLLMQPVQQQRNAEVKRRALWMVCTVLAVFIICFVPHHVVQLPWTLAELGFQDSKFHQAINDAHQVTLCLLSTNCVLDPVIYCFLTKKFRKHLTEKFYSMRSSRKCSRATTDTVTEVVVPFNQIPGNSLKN

[4] = target: Mitogen-activated protein kinase 3 (Homo sapiens, UniProt P27361); experiment: DRUGMATRIX: Protein Serine/Threonine Kinase, ERK1 enzyme inhibition (substrate: Myelin Basic Protein); parameters: species or system Escherichia coli; settings: Not Active = under 50% inhibition at 10 µM
Mitogen-activated protein kinase 3, sequence (P27361 whole entry): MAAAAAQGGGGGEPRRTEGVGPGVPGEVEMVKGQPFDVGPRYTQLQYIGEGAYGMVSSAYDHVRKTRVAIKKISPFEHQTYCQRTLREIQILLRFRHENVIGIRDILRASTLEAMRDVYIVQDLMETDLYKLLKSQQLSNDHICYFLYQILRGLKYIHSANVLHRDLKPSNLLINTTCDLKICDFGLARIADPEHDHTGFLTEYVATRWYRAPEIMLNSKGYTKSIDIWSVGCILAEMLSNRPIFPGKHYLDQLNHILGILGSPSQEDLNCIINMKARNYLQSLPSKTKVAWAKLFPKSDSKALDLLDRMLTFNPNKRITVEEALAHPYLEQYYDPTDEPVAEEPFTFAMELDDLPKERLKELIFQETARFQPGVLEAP

[5] = target: T3, Alpha-2C adrenergic receptor (Homo sapiens, UniProt P18825); experiment: DRUGMATRIX: Adrenergic Alpha-2C radioligand binding (ligand: [3H] MK-912); type: cell membranes, Sf9, Membrane; settings: sf9
T3 sequence (P18825 whole entry): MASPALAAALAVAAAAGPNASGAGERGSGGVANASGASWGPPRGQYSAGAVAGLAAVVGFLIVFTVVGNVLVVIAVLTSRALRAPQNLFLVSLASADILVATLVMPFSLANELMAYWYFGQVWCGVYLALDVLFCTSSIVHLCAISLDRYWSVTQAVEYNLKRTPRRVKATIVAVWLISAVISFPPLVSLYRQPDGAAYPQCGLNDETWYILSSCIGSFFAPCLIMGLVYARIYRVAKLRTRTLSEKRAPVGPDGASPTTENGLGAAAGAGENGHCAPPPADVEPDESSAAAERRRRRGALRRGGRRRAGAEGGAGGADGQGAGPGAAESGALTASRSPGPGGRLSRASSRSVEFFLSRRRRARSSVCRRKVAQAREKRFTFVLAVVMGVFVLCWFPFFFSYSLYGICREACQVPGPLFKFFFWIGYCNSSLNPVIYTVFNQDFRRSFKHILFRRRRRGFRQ

CN[C@@H]1[C@H](O)[C@H](NC)[C@H]2O[C@@]3(O)C(=O)C[C@@H](C)O[C@H]3O[C@@H]2[C@H]1O [SPECTINOMYCIN]
IC50 [1]: Not Active | IC50 [2]: Not Active | IC50 (Melanocortin receptor 4): Not Active | IC50 [3]: Not Active | IC50 [4]: Not Active | IC50 [5]: Not Active

COc1cc(N)nc2[nH]c(-c3ccc(F)cc3)c(-c3ccncc3)c12
IC50 [1]: Not Active | IC50 [2]: Not Active | IC50 (Melanocortin receptor 4): Not Active | IC50 [3]: Not Active | IC50 [4]: Not Active | IC50 [5]: Not Active

CN(CCOc1ccc(CC2SC(=O)NC2=O)cc1)c1ccccn1 (centres undefined) [ROSIGLITAZONE]
IC50 [1]: Not Active | IC50 [2]: Not Active | IC50 (Melanocortin receptor 4): Not Active | IC50 [3]: Not Active | IC50 [4]: Not Active | IC50 [5]: Not Active

C=C(C)[C@H]1Cc2c(ccc3c2O[C@@H]2COc4cc(OC)c(OC)cc4[C@@H]2C3=O)O1 [ROTENONE]
IC50 [1]: Not Active | IC50 [2]: Not Active | IC50 (Melanocortin receptor 4): Not Active | IC50 [3]: Not Active | IC50 [4]: Not Active | IC50 [5]: Not Active

O=C(O)C(Cl)(Cl)Cl [TRICHLOROACETIC ACID]
IC50 [1]: Not Active | IC50 [2]: Not Active | IC50 (Melanocortin receptor 4): Not Active | IC50 [3]: Not Active | IC50 [4]: Not Active | IC50 [5]: Not Active

CNS(=O)(=O)Cc1ccc2[nH]cc(CCN(C)C)c2c1
IC50 [1]: Not Active | IC50 [2]: Not Active | IC50 (Melanocortin receptor 4): Not Active | IC50 [3]: Not Active | IC50 [4]: Not Active | IC50 [5]: Not Active

CCCc1nn(C)c2c(=O)[nH]c(-c3cc(S(=O)(=O)N4CCN(C)CC4)ccc3OCC)nc12
IC50 [1]: Not Active | IC50 [2]: Not Active | IC50 (Melanocortin receptor 4): Not Active | IC50 [3]: Not Active | IC50 [4]: Not Active | IC50 [5]: Not Active

CCS(=O)(=O)CCn1c([N+](=O)[O-])cnc1C [TINIDAZOLE]
IC50 [1]: Not Active | IC50 [2]: Not Active | IC50 (Melanocortin receptor 4): Not Active | IC50 [3]: Not Active | IC50 [4]: Not Active | IC50 [5]: Not Active

COc1cc(C(=O)NS(=O)(=O)c2ccccc2C)ccc1Cc1cn(C)c2ccc(NC(=O)OC3CCCC3)cc12 [ZAFIRLUKAST]
IC50 [1]: Not Active | IC50 [2]: Not Active | IC50 (Melanocortin receptor 4): Not Active | IC50 [3]: Not Active | pIC50 ([4]; read-out: IC50): 5.36 | IC50 [5]: Not Active

STANNOUS FLUORIDE
IC50 [1]: Not Active | Ki [1]: Not Active | IC50 [2]: Not Active | Ki [2]: Not Active | IC50 (Melanocortin receptor 4): Not Active | Ki (Melanocortin receptor 4): Not Active | IC50 [3]: Not Active | Ki [3]: Not Active | IC50 [4]: Not Active | Ki [4]: Not Active | IC50 [5]: Not Active | Ki [5]: Not Active

C[C@]12CC[C@H]3[C@@H](CCC4=CC(=O)CC[C@@]43C)[C@@H]1CC[C@@H]2O [TESTOSTERONE]
IC50 [1]: Not Active | IC50 [2]: Not Active | IC50 (Melanocortin receptor 4): Not Active | IC50 [3]: Not Active | IC50 [4]: Not Active | IC50 [5]: Not Active

CN1C2CCCC1CC(NC(=O)c1nn(C)c3ccccc13)C2 (centres undefined) [GRANISETRON]
IC50 [1]: Not Active | IC50 [2]: Not Active | IC50 (Melanocortin receptor 4): Not Active | IC50 [3]: Not Active | IC50 [4]: Not Active | IC50 [5]: Not Active

COc1ccc(/C=C/C(=O)Nc2ccccc2C(=O)O)cc1OC
IC50 [1]: Not Active | IC50 [2]: Not Active | IC50 (Melanocortin receptor 4): Not Active | IC50 [3]: Not Active | IC50 [4]: Not Active | IC50 [5]: Not Active
